“And” between values parts separate entries of the source, which are not always exact repeats. Identical values can stand only once. “Also recorded” adds a separate entry of the source. Like-named read-outs stand apart in the source and are kept apart here.
Legend:
PsO patients = assay: Clinical metrics of PsO patients over course of etanercept (anti-TNFα) therapy; assay type: in vivo, human; design: BSA: unit not given here
Protocol: (§1) When compared to contralateral non-lesional skin, the PsO lesion was enriched for HIF1A, IL17RA, and IL17RC (FIGS. 3B and 8H). […] As a complementary analysis, HIF1α protein expression was measured in a cohort of 10 patients treated with etanercept (anti-TNFα) that achieved response (PASI 75 or greater) at 12 weeks (Table 2) (Stinco et al., 2019). […] Collectively, these analyses make a compelling argument for exuberant IL-17A signaling and subsequent HIF1α induction in fueling a pathological epithelial state that is resolved following successful biologic therapy, irrespective of cytokine target.

epidermal HIF1α = assay: Immunofluorescence of PsO lesions before and after etanercept; assay type: in vivo, human; details: n=10
Protocol: as §1
Human skin immunofluorescence and image analyses. Four-micron paraffin-embedded sections were stained either with hematoxylin and eosin or with Akoya Biosciences® Opal™ multiplex automation kit on a Leica BondRX® autostainer, according to manufacturers' instructions. Semi-automated image acquisition was performed on a Vectra® Polaris multispectral imaging system. After whole slide scanning at 20× the tissue was manually outlined to select fields for spectral unmixing using InForm® version 2.4.11 software from Akoya Biosciences.

[1] = test system: imiquimod (IMQ) PsO murine model; assay: Imiquimod (IMQ) PsO murine model with topical inhibitor treatment; assay type: in vivo, mouse; details: for cutaneous Type 17 immunity: interventional treatment after establishment of inflammation at day 3 of IMQ; for Type 17 cytokines (Il17a, Il22, Il23a, Il1b, Tnfa): topical during the course of IMQ treatment; for cutaneous T cell numbers (dermal CD3+ cells) / epithelial (epidermal) thickness: topical from first day, during the course of IMQ treatment; for cutaneous T cell numbers (dermal CD3+ cells) / epithelial (epidermal) thickness / dermal CD3+ cells: vs vehicle; for epidermal thickness / dermal CD3+ cells: treatment begins on day 3 of IMQ application; for epidermal thickness: up to day 6, vs vehicle
Protocol: Murine models of psoriatic inflammation. Topical imiquimod application: For imiquimod studies, seven- to eight-week-old mice in telogen (resting phase of hair cycle) were anesthetized with isoflurane prior to hair removal and imiquimod treatment on dorsal skin. 50 mg of imiquimod cream (5%, Perrigo) was applied to shaved dorsal skin, and application was repeated up to six days as previously described (van der Fits et al., 2009). Intradermal rmIL-23 injection: For recombinant murine (rm) IL-23 studies, the ear pinnae in 8-week-old mice were intradermally injected with either rmIL-23 (500 ng in 20 μl of PBS, carrier-free, PeproTech) or PBS control for five days. Animal drug treatments. […] Murine skin immunofluorescence and image analyses. […] Nuclei were stained with DAPI. […] Data were analyzed using ImageJ software.

uninflamed skin = details: topical on uninflamed skin for six days
Protocol: To examine if HIF1α is sufficient to promote epithelial pathology in the absence of inflammation, a HIF1α activator, FG-4592, was used (Wu et al., 2016). […] Animal drug treatments. EdU pulse: Mice were injected intraperitoneally with EdU (50 μg/g) (Thermo Scientific) three hours prior to sacrifice. PIM HCl: Pimonidazole Hydrochloride (PIM HCl, hypoxyprobe) was injected intraperitoneally into mice (20 mg/kg) two hours prior to sacrifice. BAY 87-2243: BAY 87-2243 (2 mg/ml, Selleck Chemicals) was first dissolved in DMSO and then diluted in a water-based gel. This gel was topically applied to dorsal skin daily starting two days prior to imiquimod application and continuing in parallel with imiquimod application until analysis. Sodium Oxamate: Sodium oxamate (70 mg/ml, Cayman Chemicals) was first dissolved in H2O and then diluted in a water-based gel. This gel was topically applied to dorsal skin daily starting either on the first or fourth day of imiquimod application and continuing in parallel with imiquimod application until analysis. Syrosingopine: Syrosingopine (10 mg/ml, Cayman Chemicals) was first dissolved in DMSO and then diluted in a water-based gel. […] Sections were blocked and stained with primary and secondary fluorescence-conjugated antibody. […] Pimonidazole Hydrochloride (PIM HCl) was detected by pretreating slides with a mouse-on-mouse immunodetection kit (Vector Laboratories) and then staining with biotin-anti-PIM adduct antibodies as per the manufacturer's guidelines (Hypoxyprobe). Data were analyzed using ImageJ software. Epidermal thickness was quantified by measuring K14^+ thickness with an in-house ImageJ macro. Thickness of keratin 6 (K6) and glucose transporter 1 (Glut1) layer was quantified by measuring K6^+K14^+ and Glut1^+K14^+ thickness with an ImageJ macro. The number of CD3 and EdU positive cells was quantified using ImageJ software and normalized per dermis area and length of epidermis, respectively.

[2] = Week 2 of etanercept, one line per individual patient
[3] = Week 6 of etanercept, one line per individual patient
[4] = Week 12 of etanercept, one line per individual patient

## etanercept
PsO patients; [2]
  BSA: 9 and 22 and 15 (2×) and 11 and 12 and 76 and 29 and 19 and 20
  Static Physician's Global Assessment (SPGA): 3 (6×) and 2 (2×) and 4 (2×)
PsO patients; Week 2 of etanercept, one line per individual patient (Patient 28-40)
  PASI: 9.5 and 3.9 and 8.1 and 9.4 and 14.3 and 31.5 and 17.4 and 18.8 and 10.7 and 10.8
PsO patients; [3]
  BSA: 8 (2×) and 4 and 15 and 11 and 39 and 25 and 13 and 18 and 16
  PASI: 7.4 and 2.7 and 4.8 and 8.4 and 4.4 and 15 and 6.6 and 12.3 and 8.2 and 4.5
  Static Physician's Global Assessment (SPGA): 3 (3×) and 1 and 2 (6×)
PsO patients; [4]
  BSA: 6 and 3 (2×) and 10 and 15 and 27 and 1 and 7 and 18 and 8
  PASI: 4.5 (2×) and 2.7 and 2.4 and 11.6 and 3.2 and 12 and 0 and 2 and 8.4
  Static Physician's Global Assessment (SPGA): 2 (4×) and 1 (4×) and 3 (2×)
PsO patients; cohort of 10 patients, at 12 weeks
  PASI response achieved: ≥ 75
Epidermal HIF1α; etanercept responsive patients
  cutaneous Type 17 cells: reduction
Epidermal HIF1α; etanercept-responsive patients, post-treated vs pre-treated lesional skin
  epidermal hyperplasia (epidermal thickness): reduced epidermal hyperplasia
Epidermal HIF1α; post-treated vs pre-treated lesional PsO epidermis, responsive patients
  expression of (nuclear) epidermal HIF1α: lower expression; also recorded: reduced

## CCOC(=O)Oc1c(OC)cc(C(=O)O[C@@H]2C[C@@H]3CN4CCc5c([nH]c6cc(OC)ccc56)[C@H]4C[C@@H]3[C@H](C(=O)OC)[C@H]2OC)cc1OC [syrosingopine]
[1]
  cutaneous Type 17 immunity: decrease
  Type 17 cytokines (Il17a, Il22, Il23a, Il1b, Tnfa): sufficient to limit
  cutaneous T cell numbers (dermal CD3+ cells): sufficient to limit
  epithelial (epidermal) thickness: sufficient to limit
  epidermal thickness: decrease
[1]; listed as MCT1/MCT4 inhibitor
  cutaneous T cell numbers (dermal CD3+ cells): diminished
  epithelial (epidermal) thickness: diminished
  dermal CD3+ cells: diminished

## Cc1nc(C(=O)NCC(=O)O)c(O)c2ccc(Oc3ccccc3)cc12 [FG-4592]
Uninflamed skin
  epidermal HIF1α levels (K14+HIF1α+ cells): effectively heightened
Uninflamed skin; listed as FG-4985
  epidermal HIF1α levels (K14+HIF1α+ cells): increased

## NC(=O)C(=O)[O-].[Na+] [sodium oxamate]
[1]
  cutaneous Type 17 immunity: decrease
  Type 17 cytokines (Il17a, Il22, Il23a, Il1b, Tnfa): sufficient to limit
  cutaneous T cell numbers (dermal CD3+ cells): diminished; also recorded: sufficient to limit
  epithelial (epidermal) thickness: diminished; also recorded: sufficient to limit
  epidermal thickness: decrease
  dermal CD3+ cells: diminished

Source: US20250075218A1, “HIF1A OR GLUT1 INHIBITION IN INFLAMMATORY SKIN DISEASES” (New York University, priority 2023, published 2025)
